For one assay, the target named is PDGFR-α (Homo sapiens, UniProt P16234). Kind of assay: PDGFR-α in vitro kinase activity assay (HTRF kinEASE TK). As to conditions: for inhibition at 0.01 µM: compound 10 nM, read-out: PDGFRα inhibition rate, 10 nM; for inhibition at 0.1 µM: compound 100 nM, read-out: PDGFRα inhibition rate, 100 nM. The format is biochemical. From the text:
(§1) CSF-1R, PDGFR-α, KDR (VEGFR2) and KIT in vitro Kinase Activity Assay:
(§2) • ENVISION (Perkinelmer, 2104) • White 384-well MicroPlate (Cat #264706, Nunc) • HTRF kinEASE TK kit main reagents (Cat #62TKOPEC, Cisbio) • TK-biotin substrate • Streptavidin-XL665 • TK Antibody-Cryptate • 5× Enzymatic buffer (5×KB) • Staphylococcal enterotoxin B (SEB) • HTRF Detection buffer • CSF-1R (Cat #PV3249, Invitrogen) • PDGFR-α (Cat #PV3811, Invitrogen) • KDR (Cat #PV3660, Invitrogen) • KIT (Cat #08-156, Carna) • ATP 10 mM (Cat #PV3227, Invitrogen) • DTT 1 M (Cat #D5545, Sigma) • MgCl2 1 M (Cat #M8266, Sigma) • MnCl2 1 M (Cat #244589, Sigma)
(§3) Dilute Substrate-TK and ATP to 5× of the reaction concentration using 1× Kinase Buffer.
(§4) Prepare the 5× enzyme working solution using 1× Kinase Buffer.
(§5) Prepare the 4×Sa-XL665 working solution using Detection Buffer.
(§6) Dilute TK-Ab-Cryptate 100 times using Detection Buffer to prepare the working solution.
(§7) After all reagents were prepared according to the methods described above, except for the enzyme, they were equilibrated to room temperature before starting the sample addition. • a) First, 2.5% DMSO solutions were prepared separately using the pre-prepared 1× kinase buffer (DMSO concentrations that were too high could affect the reaction, so the final concentration of DMSO was controlled at 1%). Then, the corresponding 2.5% DMSO solution for the enzyme was used to dilute the test compounds. Compounds were screened with two concentrations of 100 nM and 10 nM. Except for the control wells, 4 μL of the diluted test compound solution was added to the reaction wells, and 4 μL of the pre-prepared 2.5% DMSO solution was added to the control wells. • b) 2 μL of the pre-prepared TK-biotin substrate solution at the corresponding concentration for the kinase was added to all reaction wells. • c) 2 μL of the pre-prepared enzyme solution at the corresponding concentration was added to all reaction wells except the negative control wells. For the negative control wells, 2 μL of 1× kinase buffer corresponding to the enzyme was added to make up the volume. The plate was sealed with sealing film, mixed gently, and incubated at room temperature for 10 min to allow the compounds to fully interact with the enzyme. • d) 2 μL of the ATP solution at the corresponding concentration for the enzyme was added to all reaction wells to initiate the kinase reaction. ATP concentrations and reaction times for enzyme screening are shown in Table 26 • e) Five minutes before the end of the kinase reaction, the detection solution was prepared. The detection buffer from the kit was used to prepare detection solutions for Streptavidin-XL665 and TK antibody europium cryptate (1:100) at the appropriate concentrations for the two enzymes. • f) After the kinase reaction was completed, 5 μL of the diluted Streptavidin-XL665 solution was added to all reaction wells. After mixing, the diluted TK antibody europium cryptate detection solution was immediately added. • g) The plate was sealed and mixed, incubated at room temperature for 1 hour, and the fluorescence signal was detected using the ENVISION (PerkinElmer) instrument (excitation at 320 nm, emission at 665 nm and 615 nm). The inhibition rate for each well was calculated based on the full-activity control wells and background signal wells, and the average value of the replicates was taken.
Background: Time-resolved FRET reads energy transfer from a long-lived donor to a nearby acceptor.

A further assay has as its target KDR (VEGFR2) (Homo sapiens, UniProt P35968). Kind of assay: KDR (VEGFR2) in vitro kinase activity assay (HTRF kinEASE TK). As to conditions: for inhibition at 0.01 µM: compound 10 nM, read-out: VEGFR2 inhibition rate, 10 nM; for inhibition at 0.1 µM: compound 100 nM, read-out: VEGFR2 inhibition rate, 100 nM. The format is biochemical.
Text: as §1, §2, §3, §4, §5, §6, §7

Chain of PDGFR-α (P16234 24-1089): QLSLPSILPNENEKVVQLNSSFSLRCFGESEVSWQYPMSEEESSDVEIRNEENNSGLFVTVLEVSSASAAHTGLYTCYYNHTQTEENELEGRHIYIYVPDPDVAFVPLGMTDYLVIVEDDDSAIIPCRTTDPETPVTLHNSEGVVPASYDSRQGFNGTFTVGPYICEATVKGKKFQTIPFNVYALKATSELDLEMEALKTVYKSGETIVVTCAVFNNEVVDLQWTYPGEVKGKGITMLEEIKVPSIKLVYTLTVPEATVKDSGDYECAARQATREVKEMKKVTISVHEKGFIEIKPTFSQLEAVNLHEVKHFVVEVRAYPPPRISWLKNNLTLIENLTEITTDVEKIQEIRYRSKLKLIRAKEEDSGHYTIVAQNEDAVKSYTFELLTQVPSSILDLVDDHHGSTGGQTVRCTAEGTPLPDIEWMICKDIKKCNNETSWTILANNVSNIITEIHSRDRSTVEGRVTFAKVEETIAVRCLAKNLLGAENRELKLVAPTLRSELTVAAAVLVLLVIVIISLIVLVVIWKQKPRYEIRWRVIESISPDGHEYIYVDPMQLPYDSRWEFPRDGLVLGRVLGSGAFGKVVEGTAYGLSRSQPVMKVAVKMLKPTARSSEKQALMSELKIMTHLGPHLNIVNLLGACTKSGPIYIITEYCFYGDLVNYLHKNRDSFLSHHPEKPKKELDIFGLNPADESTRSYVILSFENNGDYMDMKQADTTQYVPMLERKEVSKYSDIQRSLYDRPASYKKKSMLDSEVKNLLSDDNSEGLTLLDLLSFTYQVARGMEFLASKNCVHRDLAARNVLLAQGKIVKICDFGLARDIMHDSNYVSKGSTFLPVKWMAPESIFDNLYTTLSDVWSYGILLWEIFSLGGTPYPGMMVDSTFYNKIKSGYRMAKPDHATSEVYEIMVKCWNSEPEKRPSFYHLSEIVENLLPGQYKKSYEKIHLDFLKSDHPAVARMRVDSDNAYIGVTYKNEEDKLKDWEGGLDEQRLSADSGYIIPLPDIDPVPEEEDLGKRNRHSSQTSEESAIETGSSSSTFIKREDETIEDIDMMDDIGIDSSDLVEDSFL
Chain of KDR (VEGFR2) (P35968 20-1356): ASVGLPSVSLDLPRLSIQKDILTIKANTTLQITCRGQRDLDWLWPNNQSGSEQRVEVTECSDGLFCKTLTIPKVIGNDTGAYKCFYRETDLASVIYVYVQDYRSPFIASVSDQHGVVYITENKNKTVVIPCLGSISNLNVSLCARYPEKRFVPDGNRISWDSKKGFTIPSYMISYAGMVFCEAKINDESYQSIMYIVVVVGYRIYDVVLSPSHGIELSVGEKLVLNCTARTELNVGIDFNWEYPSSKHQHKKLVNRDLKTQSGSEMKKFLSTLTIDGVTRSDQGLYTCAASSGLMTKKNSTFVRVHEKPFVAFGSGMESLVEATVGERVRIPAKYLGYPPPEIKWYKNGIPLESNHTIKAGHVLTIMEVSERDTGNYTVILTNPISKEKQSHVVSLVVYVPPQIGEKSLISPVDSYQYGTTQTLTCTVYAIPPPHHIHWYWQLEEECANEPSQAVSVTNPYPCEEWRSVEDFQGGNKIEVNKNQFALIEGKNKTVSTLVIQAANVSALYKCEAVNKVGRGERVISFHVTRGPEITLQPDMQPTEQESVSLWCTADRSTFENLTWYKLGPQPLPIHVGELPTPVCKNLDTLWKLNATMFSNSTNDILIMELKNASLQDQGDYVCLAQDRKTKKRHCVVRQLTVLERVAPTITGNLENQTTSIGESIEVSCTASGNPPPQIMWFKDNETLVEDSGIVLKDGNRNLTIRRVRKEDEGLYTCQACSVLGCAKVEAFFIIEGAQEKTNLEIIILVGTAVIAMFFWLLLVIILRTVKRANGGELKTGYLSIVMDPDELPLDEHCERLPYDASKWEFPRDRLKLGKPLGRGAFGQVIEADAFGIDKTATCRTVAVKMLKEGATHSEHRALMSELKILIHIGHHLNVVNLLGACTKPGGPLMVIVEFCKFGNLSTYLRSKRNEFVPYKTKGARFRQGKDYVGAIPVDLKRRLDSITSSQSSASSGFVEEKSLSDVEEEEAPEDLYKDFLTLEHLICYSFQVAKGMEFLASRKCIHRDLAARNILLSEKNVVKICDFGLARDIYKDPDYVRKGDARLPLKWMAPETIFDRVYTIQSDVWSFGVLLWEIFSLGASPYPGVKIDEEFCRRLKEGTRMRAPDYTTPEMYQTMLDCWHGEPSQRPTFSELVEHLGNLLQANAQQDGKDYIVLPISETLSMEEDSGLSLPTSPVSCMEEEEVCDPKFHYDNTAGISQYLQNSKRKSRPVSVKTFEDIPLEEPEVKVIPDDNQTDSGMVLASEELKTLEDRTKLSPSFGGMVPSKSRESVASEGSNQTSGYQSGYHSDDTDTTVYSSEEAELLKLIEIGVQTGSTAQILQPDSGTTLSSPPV

As usually defined, the inhibition is the change of the read-out against control, counted positive when it falls. As to `Cn1ncc2ncc(N[C@H]3CCc4c(C(=O)Nc5cccc(C6CC6)c5)cccc43)cc21` [Compound 73, (S)—N-(3-cyclopropylphenyl)-1-((1-methyl-1H-pyrazolo[4,3-b]pyridin-6-yl)amino)-2,3-dihydro-1H-indene-4-carboxamide], at PDGFR-α, the inhibition at 0.01 µM came out at 90% and the inhibition at 0.1 µM was 100%. Moreover, at KDR (VEGFR2), the inhibition at 0.01 µM was 68.3% and the inhibition at 0.1 µM was found to be 100%.

Consider `Cn1cc2ncc(N[C@H]3CCc4c(C(=O)Nc5nc(C6CC6)cs5)cccc43)cc2n1` [Compound 74h, (S)—N-(4-cyclopropylthiazol-2-yl)-1-((2-methyl-2H-pyrazolo[4,3-b]pyridin-6-yl)amino)-2,3-dihydro-1H-indene-4-carboxamide], for which the inhibition at 0.01 µM is 29.3% at PDGFR-α and 60.3% on KDR (VEGFR2). Besides, the values for the inhibition at 0.1 µM at PDGFR-α and at KDR (VEGFR2) were 94.8% and 94.9%, respectively.

Turning to `Cn1ncc2ncc(O[C@H]3CCc4c(C(=O)Nc5cncc(Cl)c5)cccc43)cc21` [Compound 76ac, (S)—N-(5-chloropyridin-3-yl)-1-((1-methyl-1H-pyrazolo[4,3-b]pyridin-6-yl)oxy)-2,3-dihydro-1H-indene-4-carboxamide], the inhibition at 0.01 µM on PDGFR-α worked out at 13.7%; at KDR (VEGFR2) it was 85.4%. Further, the inhibition at 0.1 µM amounted to 53.1% on PDGFR-α and 98.3% at KDR (VEGFR2).

As to `Cn1cc2ncc(O[C@H]3CCc4c(C(=O)Nc5cncc(Cl)c5)cccc43)cc2n1` [Compound 76ai], at PDGFR-α, the inhibition at 0.01 µM worked out at 37.8% and the inhibition at 0.1 µM came out at 89.3%. At KDR (VEGFR2), the inhibition at 0.01 µM was 96.5% and the inhibition at 0.1 µM came to 102%.

On to `Cn1cc2ncc(O[C@H]3CCc4c(C(=O)Nc5nn(C)c6ccccc56)cccc43)cc2n1` [Compound 76al], for which, at PDGFR-α, the inhibition at 0.01 µM was determined as 97.6% and the inhibition at 0.1 µM was determined as 97.2%. In addition, on KDR (VEGFR2), the inhibition at 0.01 µM was 99.1% and the inhibition at 0.1 µM came to 95.6%.

`Cn1cc2ncc(O[C@H]3CCc4c(C(=O)Nc5nn(C)c6cccc(F)c56)cccc43)cc2n1` [Compound 76aw]: on PDGFR-α, the inhibition at 0.01 µM amounted to 88.5% and the inhibition at 0.1 µM stood at 102%. For the same molecule, on KDR (VEGFR2), the inhibition at 0.01 µM stood at 89.9% and the inhibition at 0.1 µM stood at 101%.

In the case of `Cc1cccc(NC(=O)c2cccc3c2CC[C@@H]3Oc2cnc3cn(C)nc3c2)n1` [Compound 76bd], at PDGFR-α, the inhibition at 0.01 µM amounted to 32% and the inhibition at 0.1 µM was determined as 85.7%. Moreover, at KDR (VEGFR2), the inhibition at 0.01 µM was 93.2% and the inhibition at 0.1 µM came to 97%.

As for `CN(c1cnc2cn(C)nc2c1)[C@H]1CCc2c(C(=O)Nc3cncc(Cl)c3)cccc21` [Compound 80k], the inhibition at 0.01 µM at PDGFR-α is 19%; at KDR (VEGFR2) it was 43%. The figures for the inhibition at 0.1 µM on PDGFR-α and at KDR (VEGFR2) were 51.2% and 91.9%, respectively.

`CN(c1cnc2cn(C)nc2c1)[C@H]1CCc2c(C(=O)Nc3nn(C)c4ccccc34)cccc21` [Compound 80l]: on PDGFR-α, the inhibition at 0.01 µM stood at 69.1% and the inhibition at 0.1 µM came to 96.9%. Also, on KDR (VEGFR2), the inhibition at 0.01 µM is 95% and the inhibition at 0.1 µM is 100%.

Turning to `Cn1ncc2ncc(N[C@H]3CCc4c(Nc5cc(C(C)(C)C)on5)cccc43)nc21` [Compound 86, (S)—N^4-(5-(tert-butyl)isoxazol-3-yl)-N1-(1-methyl-1H-pyrazolo[3,4-b]pyrazin-6-yl)-2,3-dihydro-1H-indene-1,4-diamine], at PDGFR-α, the inhibition at 0.01 µM turned out to be 26.8% and the inhibition at 0.1 µM is 96.5%. For the same molecule, at KDR (VEGFR2), the inhibition at 0.01 µM was 12.9% and the inhibition at 0.1 µM came out at 70.1%.
